Data on 24 compounds can be found in patent US20240391882A1 (Mirati Therapeutics, Inc., priority 2023, published 2024).

What all share (type): cell-based
The test system of test [1] is SKBR3 (PI3Kα wild type) cells. In words: Cell viability (CellTiter-Glo 2.0) in SKBR3 cells. The note with it: Homo sapiens, SK-BR-3; SKBR3 (PI3Kα wild type) cells, approximately 72 hours, CellTiter-Glo 2.0; read-out: SKBR3 (WT) Viability IC50. Summed up:
(§1)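 IC50 values derive from four-parameter fits of CellTiter-Glo luminescence expressed as percent of vehicle control. Cells (T47D or SKBR3) were plated at 1000/well the day before dosing and incubated about 72 h at 37° C with a 10-point, 1:4 series starting at 10 μm.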

In test [2] the test system is T47D (PI3Kα H1047R mutant) cells. In words: Cell viability (CellTiter-Glo 2.0) in T47D cells. The note with it: Homo sapiens, T47D, 72 h, approximately 72 hours. Put shortly:
as §1

The subject of test [3] is pAKT in T47D (PI3Kα H1047R mutant) cells. The experiment in a line: Inhibition of pAKT (alphaLISA Surefire Ultra AKT 1/2/3 pS473) in T47D cells. The note with it: Homo sapiens; T47D (PI3Kα H1047R mutant) cells, 24 hr compound incubation, alphaLISA pS473; read-out: T47D (H1047R) pAKT 24 hr (IC50). Put shortly: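 AlphaLISA read-out of AKT pS473 in lysates after roughly 24 h compound exposure at 37° C in HBSS. Ten concentrations, 1:4 dilutions from a 10.4 μm top dose. Percent of control uses alpelisib at 3.125 μm as background and DMSO as vehicle; four-parameter curve gives IC50.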

For `Cc1cc([C@@H](C)Nc2ccc(Cl)nc2C(=O)O)c2nc(-c3ccc(=O)n(C)c3)c(C#N)nc2c1` [Example 223, (R)-6-chloro-3-((1-(2-cyano-7-methyl-3-(1-methyl-6-oxo-1,6-dihydropyridin-3-yl)quinoxalin-5-yl)ethyl)amino)picolinic acid], the IC50 in test [1] was over 10 µM; in test [2] it was 1.03 µM; in test [3], 0.02 µM.
On to `COC1(C)CN(c2nc3c([C@@H](C)Nc4ccccc4C(=O)O)cc(C)cc3nc2C#N)C1` [Example 63, (R)-2-((1-(2-cyano-3-(3-methoxy-3-methylazetidin-1-yl)-7-methylquinoxalin-5-yl)ethyl)amino)benzoic acid], for which the IC50 was 9.81 µM in test [1], 0.254 µM in test [2] and 0.0165 µM in test [3].
Taken in the same sequence, the figures for `C[C@@H](Nc1ccc(Cl)nc1C(=O)O)c1cc(Cl)cc2nc(C#N)c(N3CC4(COC4)C3)nc12` [Example 145] were 9.96 µM, 0.09 µM and 0.0014 µM.
Taken in the same sequence, the figures for `C[C@@H](Nc1ccccc1C(=O)O)c1cc(F)cc2nc(C#N)c(N3CCC(F)(F)CC3)nc12` [Example 32, (R)-2-((1-(2-cyano-3-(4,4-difluoropiperidin-1-yl)-7-fluoroquinoxalin-5-yl)ethyl)amino)benzoic acid] were over 10 µM, 0.265 µM and 0.0102 µM.
For `Cc1cc([C@@H](C)Nc2ccc(Cl)nc2C(=O)O)c2nc(N3CCCOCC3)c(C#N)nc2c1` [Example 242, (R)-6-chloro-3-((1-(2-cyano-7-methyl-3-(1,4-oxazepan-4-yl)quinoxalin-5-yl)ethyl)amino)picolinic acid], the IC50 stood at 8.26 µM in test [1], 0.035 µM in test [2] and 0.00028 µM in test [3].
In the same order, the values of `Cc1cc([C@@H](C)Nc2ccc(Cl)nc2C(=O)O)c2nc(N3CCO[C@H]4C[C@H]43)c(C#N)nc2c1` (single isomer, unassigned) [Example 239B] are 7.26 µM, 0.022 µM and 0.0004 µM.
On to `Cc1cc([C@@H](C)Nc2ccc(Cl)nc2C(=O)O)c2nc(N3C[C@@H](F)C[C@@H]3C)c(C#N)nc2c1` [Example 246D, 6-chloro-3-(((R)-1-(2-cyano-3-((2S,4S)-4-fluoro-2-methylpyrrolidin-1-yl)-7-methylquinoxalin-5-yl)ethyl)amino)picolinic acid], for which the IC50 in test [1] was 6.22 µM; in test [2] it was 0.158 µM; in test [3], 0.0068 µM.
Consider `CO[C@H]1CCCN(c2nc3c([C@@H](C)Nc4ccc(Cl)nc4C(=O)O)cc(C)cc3nc2C#N)C1` [Example 196A, 6-chloro-3-(((R)-1-(2-cyano-3-((S)-3-methoxypiperidin-1-yl)-7-methylquinoxalin-5-yl)ethyl)amino)picolinic acid], for which the IC50 was over 10 µM in test [1], 0.0621 µM in test [2] and 0.0012 µM in test [3].
Take `Cc1cc([C@@H](C)Nc2ccc(Cl)nc2C(=O)O)c2nc(N3C[C@@H](F)C[C@H]3C)c(C#N)nc2c1` [Example 246A, 6-chloro-3-(((R)-1-(2-cyano-3-((2R,4S)-4-fluoro-2-methylpyrrolidin-1-yl)-7-methylquinoxalin-5-yl)ethyl)amino)picolinic acid]: the IC50 in test [1] is over 10 µM; in test [2], 0.035 µM; in test [3], 0.00069 µM.
In the same order, the values of `Cc1cc([C@@H](C)Nc2ccc(Cl)nc2C(=O)O)c2nc(N3CC4CS(=O)(=O)CC4C3)c(C#N)nc2c1` (stereo partly drawn) [Example 228, 6-chloro-3-(((1R)-1-(2-cyano-3-(2,2-dioxidotetrahydro-1H-thieno[3,4-c]pyrrol-5(3H)-yl)-7-methylquinoxalin-5-yl)ethyl)amino)picolinic acid] are over 10 µM, 0.368 µM and 0.0332 µM.
In the same order, the values of `Cc1cc([C@@H](C)Nc2ccc(Cl)nc2C(=O)O)c2nc(N3CC4(CC(O)C4)C3)c(C#N)nc2c1` [Example 259, (R)-6-chloro-3-((1-(2-cyano-3-(6-hydroxy-2-azaspiro[3.3]heptan-2-yl)-7-methylquinoxalin-5-yl)ethyl)amino)picolinic acid] are over 10 µM, 0.075 µM and 0.0015 µM.
In the same order, the values of `C[C@@H](Nc1ccc(Cl)nc1C(=O)O)c1cc(C2CC2)cc2nc(C#N)c(N3CCC(F)(F)CC3)nc12` [Example 33, (R)-6-chloro-3-((1-(2-cyano-7-cyclopropyl-3-(4,4-difluoropiperidin-1-yl)quinoxalin-5-yl)ethyl)amino)picolinic acid] are 7.43 µM, 0.0914 µM and 0.0043 µM.
With `Cc1cc([C@@H](C)Nc2ccc(Cl)nc2C(=O)O)c2nc(N3C[C@@H]4C[C@H]3CC4(F)F)c(C#N)nc2c1` (single isomer, unassigned) [Example 8], the IC50 in test [1] was 3.62 µM; in test [2] it was 0.0341 µM; in test [3], 0.0077 µM.
As to `CO[C@@H](C)C1CCN(c2nc3c([C@@H](C)Nc4ccc(Cl)nc4C(=O)O)cc(C)cc3nc2C#N)CC1` (single isomer, unassigned) [Example 195B], the IC50 was over 10 µM in test [1], 0.1 µM in test [2] and 0.00037 µM in test [3].
Taken in the same sequence, the figures for `Cc1cc([C@@H](C)Nc2ccc(Cl)nc2C(=O)O)c2nc(N3CC4C(C3)C4(F)F)c(C#N)nc2c1` (stereo partly drawn) [Example 21, 6-chloro-3-(((1R)-1-(2-cyano-3-(6,6-difluoro-3-azabicyclo[3.1.0]hexan-3-yl)-7-methylquinoxalin-5-yl)ethyl)amino)picolinic acid] were over 10 µM, 0.0321 µM and 0.0005 µM.
`Cc1cc([C@@H](C)Nc2ccc(Cl)nc2C(=O)O)c2nc(N3CCC4(CCO4)CC3)c(C#N)nc2c1` [Example 250, (R)-6-chloro-3-((1-(2-cyano-7-methyl-3-(1-oxa-7-azaspiro[3.5]nonan-7-yl)quinoxalin-5-yl)ethyl)amino)picolinic acid]: the IC50 in test [1] is 4.89 µM; in test [2], 0.037 µM; in test [3], 0.0012 µM.
In the same order, the values of `Cc1cc([C@@H](C)Nc2ccc(Cl)nc2C(=O)O)c2nc(N3C[C@@H](F)[C@@H](C)C3)c(C#N)nc2c1` [Example 245, 6-chloro-3-(((R)-1-(2-cyano-3-((3S,4S)-3-fluoro-4-methylpyrrolidin-1-yl)-7-methylquinoxalin-5-yl)ethyl)amino)picolinic acid] are 5.51 µM, 0.063 µM and 0.0011 µM.
With `Cc1cc([C@@H](C)Nc2cccnc2C(=O)O)c2nc(N3CCOCC3)c(C#N)nc2c1` [Example 203, (R)-3-((1-(2-cyano-7-methyl-3-morpholinoquinoxalin-5-yl)ethyl)amino)picolinic acid], the results for the IC50 in test [1], in test [2] and in test [3] were 2.23 µM, 0.559 µM and 0.0251 µM, respectively.
With `Cc1cc([C@@H](C)Nc2ccc(Cl)nc2C(=O)O)c2nc(N3CCCC3)c(C#N)nc2c1` [Example 69, (R)-6-chloro-3-((1-(2-cyano-7-methyl-3-(pyrrolidin-1-yl)quinoxalin-5-yl)ethyl)amino)picolinic acid], the results for the IC50 in test [1], in test [2] and in test [3] were 9.65 µM, 0.0502 µM and 0.0021 µM, respectively.
With `Cc1cc([C@@H](C)Nc2ccc(Cl)nc2C(=O)O)c2nc(N3CC4(CCCO4)C3)c(C#N)nc2c1` [Example 252, (R)-6-chloro-3-((1-(2-cyano-7-methyl-3-(5-oxa-2-azaspiro[3.4]octan-2-yl)quinoxalin-5-yl)ethyl)amino)picolinic acidS], the IC50 worked out at 5.26 µM in test [1], 0.119 µM in test [2] and 0.0027 µM in test [3].
With `Cc1cc([C@@H](C)Nc2ccc(Cl)nc2C(=O)O)c2nc(N3CCC(F)(F)CC3)c(C)nc2c1` [Example 35, (R)-6-chloro-3-((1-(3-(4,4-difluoropiperidin-1-yl)-2,7-dimethylquinoxalin-5-yl)ethyl)amino)picolinic acid], the IC50 in test [1] was determined as 8.29 µM; in test [2], 0.166 µM; in test [3], 0.0031 µM.
For `C[C@@H](Nc1ccccc1C(=O)O)c1cc(C2CC2)cc2nc(C#N)c(N3CCC(F)(F)CC3)nc12` [Example 37, (R)-2-((1-(2-cyano-7-cyclopropyl-3-(4,4-difluoropiperidin-1-yl)quinoxalin-5-yl)ethyl)amino)benzoic acid], the IC50 in test [1] is over 10 µM; in test [2], 0.588 µM; in test [3], 0.0946 µM.
As for `Cc1cc([C@@H](C)Nc2ccc(Cl)nc2C(=O)O)c2nc(N3CCN(c4cc(C)on4)CC3)c(C#N)nc2c1` [Example 201, (R)-6-chloro-3-((1-(2-cyano-7-methyl-3-(4-(5-methylisoxazol-3-yl)piperazin-1-yl)quinoxalin-5-yl)ethyl)amino)picolinic acid], the values for the IC50 in test [1], in test [2] and in test [3] were 7.81 µM, 0.0105 µM and 0.00027 µM, respectively.
Taken in the same sequence, the figures for `Cc1cc([C@@H](C)Nc2ccc(Cl)nc2C(=O)O)c2nc(N3CCC(C)(C)CC3)c(C#N)nc2c1` [Example 62, (R)-6-chloro-3-((1-(2-cyano-3-(4,4-dimethylpiperidin-1-yl)-7-methylquinoxalin-5-yl)ethyl)amino)picolinic acid] were 7.08 µM, 0.22 µM and 0.0079 µM.
